Measurements published in US20250304594A1, “METHYL (R)-2-(FLUOROMETHYL)-5-OXO-4-PHENYL-4,5,6,7-TETRAHYDRO-1H-CYCLOPENTA[B]PYRIDINE-3-CARBOXYLATE AND METHYL (R)-2-(FLUOROMETHYL)-5-OXO-4-PHENYL-1,4,5,7-TETRAHYDROFURO[3,4-B]PYRIDINE-3-CARBOXYLATE AS Cav1,2 ACTIVATORS” (Novartis AG, priority 2020, published 2025).

Target: T1, human CaV1.2 (Homo sapiens, UniProt Q13936)
T1 construct: expressed in transfected cells; host or cells: Flp-In 293 T-Rex (HEK293), monoclonal CaV1.2-HEK293(AUX) clone 2-19B; doxycycline-induced auxiliary subunits
Experiment: Sophion QPatch dose-response assay, whole-cell voltage clamp of barium currents in CaV1.2-HEK293(AUX) cells
Type: cell-based
Conditions: Table 9, n = 1 unless * n = 2; for EC50: 6-point dose response, 10 determinations per concentration; for Qpatch Emax: maximal fold change of peak inward current
Source text: The monoclonal CaV1.2-HEK293(AUX) cell line constitutively expresses human CaV1.2 alpha1C (α1C) subunit (CACNA1C) and has doxycycline-inducible expression of the alpha2delta (α2Δ2) auxiliary subunit (CACNA2D2) and beta2 (02) auxiliary subunit (CACNB2). To generate the cell line, expression vectors pcDNA5.0/FRT-TO-CACNA2D2-FCS-P2A-CACNB2 and pCMV6-entry-CACNA1C were established via gene synthesis and cloning. Here, pcDNA5.0/FRT-TO plasmid is from Invitrogen, pCMV6-entry is from Origene, FCS stands for Furin Cleavage Site, P2A is a peptide self-cleavage sequence derived from porcine teschovirus-1, and FRT is the Flippase recognition target site. Next, parental line Flp-In™ 293 T-Rex (Invitrogen) was transfected with pcDNA5.0/FRT-TO-CACNA2D2-FCS-P2A-CACNB2 and Flippase vector pOG44 (Invitrogen) to establish targeted integration of the CACNA2D2-FCS-P2A-CACNB2 expression cassette into the pre-engineered FRT site in Flp-In™ 293 T-Rex. This intermediate cell line was then transfected with pCMV6-entry-CACNA1C to establish stable CACNA1C expression. Clonal isolation was achieved under Neomycin selection.
Electrophysiological Characterization of CaV1.2 Activators Using CaV1.2-HEK293(AUX) Cell Line and QPatch
24 hours prior an electrophysiology experiment, doxycycline (1 μg/ml) was added to the growth medium (Table 6), and 25 μM of verapamil was co-applied to prevent calcium influx triggered cell death. Cell confluency should reach 70%-80% right before the experiment. To harvest cells (from a T175 cm^2 flask as an example), growth media were removed completely, and the cells were rinsed with 10 mL of D-PBS. D-PBS was aspirated, and 10 mL of Detachin (Genlantis) was added and the plate was placed in a 37° C. incubator for 10 minutes. Detached cells were placed into a 15 mL conical tube and spun at 1000 rpm for 2 minutes. Supernatant was removed, and cells were re-suspended in QPatch complete media (Table 7) to desired cell density of 1.5-3 million cells per QPatch run. Each experimental run uses 1.5 mL of cells.
The cells suspension was taken to the Sophion QPatch platform that uses whole-cell voltage clamp to measure barium currents conducted through CaV1.2 on single-hole QPlates. Extracellular and intracellular patch clamp solutions are described in Tables 7 and 8, respectively. A dose-response assay protocol was used to determine the maximal fold change of peak inward current (Emax) and potency (EC50) of each compound. The protocol had eight liquid periods. The first liquid period was to stabilize current amplitude, which was monitored using repetitive 200-ms voltage pulses stepping from −80 mV to 0 mV. The second liquid period was to determine baseline current amplitude in the presence of vehicle control, using a single 20-ms voltage pulse stepping from −80 mV to 0 mV. The third through eighth liquid periods were used to ascertain a 6-dose response to compound treatments, also using single 20-ms voltage pulses stepping from −80 mV to 0 mV. The EC50 was generated using the following equation Iconcentration=Ibase+(Ifull−Ibase)*c^n/(XC50^n+c^n), where c is the concentration and n is the Hill coefficient constant. Ifull is the maximal current achievable, and Ibase is 0. A channel biophysics assay protocol was used to determine channel gating properties including current-voltage relationship (IV curves), half-way channel activation voltage (V1/2), rate of channel inactivation (tau), and amplitude of tail current. Among these, V1/2 was derived from fitting equation G(V)=Gvmin+(Gvmax−Gvmin)/(1+exp(−(V−V½)/Vslope)), where G stands for conductance, Gvmin equals 0, Gvmax is the maximal conductance, and Vslope is a slope factor. G(V) was pre-calculated from equation G(V)=I(V)/(V−0.06), for each experimentally applied depolarization potential (V) and the corresponding current amplitude (I(V)), and 0.06 in the equation was the experimentally determined reversal potential in volts. The protocol had four liquid periods.

T1 sequence (Q13936 1-2138 isoform Q13936-23): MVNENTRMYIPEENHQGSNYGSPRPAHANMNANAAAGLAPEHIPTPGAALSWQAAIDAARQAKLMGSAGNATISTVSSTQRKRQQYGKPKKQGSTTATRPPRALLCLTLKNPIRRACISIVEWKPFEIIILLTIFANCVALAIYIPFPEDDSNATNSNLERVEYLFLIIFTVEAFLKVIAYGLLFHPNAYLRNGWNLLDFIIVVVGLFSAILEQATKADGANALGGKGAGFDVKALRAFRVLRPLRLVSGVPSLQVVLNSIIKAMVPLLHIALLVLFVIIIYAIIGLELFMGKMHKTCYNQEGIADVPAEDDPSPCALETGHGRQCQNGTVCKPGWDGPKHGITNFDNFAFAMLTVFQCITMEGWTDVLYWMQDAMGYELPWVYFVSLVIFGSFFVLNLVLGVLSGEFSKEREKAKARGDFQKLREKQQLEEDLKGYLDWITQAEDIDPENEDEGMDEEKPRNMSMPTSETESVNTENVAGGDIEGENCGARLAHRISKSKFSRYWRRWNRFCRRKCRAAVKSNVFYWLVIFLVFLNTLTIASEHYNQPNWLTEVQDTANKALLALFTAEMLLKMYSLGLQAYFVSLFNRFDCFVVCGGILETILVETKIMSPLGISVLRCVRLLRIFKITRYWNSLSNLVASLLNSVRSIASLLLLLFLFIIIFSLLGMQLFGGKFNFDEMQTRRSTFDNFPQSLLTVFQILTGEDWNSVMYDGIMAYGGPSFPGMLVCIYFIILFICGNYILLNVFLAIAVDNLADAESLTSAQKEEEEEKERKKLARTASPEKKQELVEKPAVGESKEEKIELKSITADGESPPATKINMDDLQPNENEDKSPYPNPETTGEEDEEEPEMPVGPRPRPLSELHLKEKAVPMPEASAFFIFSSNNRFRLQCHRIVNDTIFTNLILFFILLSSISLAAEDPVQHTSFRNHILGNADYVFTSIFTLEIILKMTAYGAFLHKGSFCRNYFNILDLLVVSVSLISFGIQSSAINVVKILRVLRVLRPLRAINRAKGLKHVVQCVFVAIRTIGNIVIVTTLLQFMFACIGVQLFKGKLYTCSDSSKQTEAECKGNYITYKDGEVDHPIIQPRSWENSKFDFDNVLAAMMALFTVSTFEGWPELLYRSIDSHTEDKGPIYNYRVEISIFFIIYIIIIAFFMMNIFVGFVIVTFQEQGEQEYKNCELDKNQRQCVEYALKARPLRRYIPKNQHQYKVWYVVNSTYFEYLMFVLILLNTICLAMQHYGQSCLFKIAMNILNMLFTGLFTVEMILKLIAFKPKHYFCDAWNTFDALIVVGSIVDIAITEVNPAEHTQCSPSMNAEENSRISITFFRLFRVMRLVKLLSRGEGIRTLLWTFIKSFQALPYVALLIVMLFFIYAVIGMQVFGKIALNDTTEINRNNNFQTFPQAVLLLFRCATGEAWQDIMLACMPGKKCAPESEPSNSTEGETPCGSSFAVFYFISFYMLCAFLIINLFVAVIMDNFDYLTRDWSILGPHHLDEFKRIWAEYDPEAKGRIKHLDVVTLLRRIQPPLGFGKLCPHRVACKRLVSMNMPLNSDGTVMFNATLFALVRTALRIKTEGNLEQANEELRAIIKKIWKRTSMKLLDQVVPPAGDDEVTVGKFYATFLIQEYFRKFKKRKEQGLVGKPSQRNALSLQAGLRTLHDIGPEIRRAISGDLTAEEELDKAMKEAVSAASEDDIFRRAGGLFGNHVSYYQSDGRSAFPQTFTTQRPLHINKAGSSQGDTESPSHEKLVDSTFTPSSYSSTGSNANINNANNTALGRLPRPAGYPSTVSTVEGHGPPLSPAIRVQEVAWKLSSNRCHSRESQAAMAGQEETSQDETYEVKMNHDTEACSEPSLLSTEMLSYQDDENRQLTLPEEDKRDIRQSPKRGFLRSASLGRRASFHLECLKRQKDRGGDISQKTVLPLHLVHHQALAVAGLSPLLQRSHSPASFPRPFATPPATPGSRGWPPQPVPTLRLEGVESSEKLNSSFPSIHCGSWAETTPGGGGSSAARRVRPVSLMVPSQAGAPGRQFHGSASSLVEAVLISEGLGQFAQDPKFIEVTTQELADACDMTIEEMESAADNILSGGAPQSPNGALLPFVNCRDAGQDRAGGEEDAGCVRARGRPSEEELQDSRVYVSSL
T1 sequence (Q9NY47 19-1001 partner limits assumed): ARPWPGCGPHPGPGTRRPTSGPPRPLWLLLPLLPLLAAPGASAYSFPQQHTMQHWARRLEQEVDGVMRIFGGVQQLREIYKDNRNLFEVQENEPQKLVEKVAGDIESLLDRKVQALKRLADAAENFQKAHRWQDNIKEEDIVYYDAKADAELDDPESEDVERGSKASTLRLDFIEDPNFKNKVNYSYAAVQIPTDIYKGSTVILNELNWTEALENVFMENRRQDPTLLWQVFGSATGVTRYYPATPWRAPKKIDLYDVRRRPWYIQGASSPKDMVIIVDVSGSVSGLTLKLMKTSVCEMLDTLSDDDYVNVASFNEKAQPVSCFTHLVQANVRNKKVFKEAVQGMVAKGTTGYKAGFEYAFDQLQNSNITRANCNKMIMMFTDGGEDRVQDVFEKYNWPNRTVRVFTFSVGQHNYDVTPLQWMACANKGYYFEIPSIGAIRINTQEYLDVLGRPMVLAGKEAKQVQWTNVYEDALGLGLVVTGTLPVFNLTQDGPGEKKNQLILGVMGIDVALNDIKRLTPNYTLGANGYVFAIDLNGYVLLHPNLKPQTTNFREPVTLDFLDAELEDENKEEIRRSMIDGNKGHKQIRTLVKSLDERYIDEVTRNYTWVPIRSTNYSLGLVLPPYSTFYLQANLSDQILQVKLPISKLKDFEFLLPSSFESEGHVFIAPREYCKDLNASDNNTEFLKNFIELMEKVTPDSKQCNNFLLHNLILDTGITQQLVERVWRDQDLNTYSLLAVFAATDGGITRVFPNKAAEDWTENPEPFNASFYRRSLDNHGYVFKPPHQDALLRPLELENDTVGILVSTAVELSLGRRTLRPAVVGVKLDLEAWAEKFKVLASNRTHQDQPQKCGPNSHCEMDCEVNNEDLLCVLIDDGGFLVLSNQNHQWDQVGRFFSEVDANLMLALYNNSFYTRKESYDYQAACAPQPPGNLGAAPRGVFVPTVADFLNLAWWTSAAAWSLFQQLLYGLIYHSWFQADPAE
T1 sequence (Q9NY47 1002-1150 partner limits assumed): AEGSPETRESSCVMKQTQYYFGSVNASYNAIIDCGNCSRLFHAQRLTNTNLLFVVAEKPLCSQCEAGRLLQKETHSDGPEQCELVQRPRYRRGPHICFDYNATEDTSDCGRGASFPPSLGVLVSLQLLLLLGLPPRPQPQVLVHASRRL
T1 sequence (Q08289 whole entry partner): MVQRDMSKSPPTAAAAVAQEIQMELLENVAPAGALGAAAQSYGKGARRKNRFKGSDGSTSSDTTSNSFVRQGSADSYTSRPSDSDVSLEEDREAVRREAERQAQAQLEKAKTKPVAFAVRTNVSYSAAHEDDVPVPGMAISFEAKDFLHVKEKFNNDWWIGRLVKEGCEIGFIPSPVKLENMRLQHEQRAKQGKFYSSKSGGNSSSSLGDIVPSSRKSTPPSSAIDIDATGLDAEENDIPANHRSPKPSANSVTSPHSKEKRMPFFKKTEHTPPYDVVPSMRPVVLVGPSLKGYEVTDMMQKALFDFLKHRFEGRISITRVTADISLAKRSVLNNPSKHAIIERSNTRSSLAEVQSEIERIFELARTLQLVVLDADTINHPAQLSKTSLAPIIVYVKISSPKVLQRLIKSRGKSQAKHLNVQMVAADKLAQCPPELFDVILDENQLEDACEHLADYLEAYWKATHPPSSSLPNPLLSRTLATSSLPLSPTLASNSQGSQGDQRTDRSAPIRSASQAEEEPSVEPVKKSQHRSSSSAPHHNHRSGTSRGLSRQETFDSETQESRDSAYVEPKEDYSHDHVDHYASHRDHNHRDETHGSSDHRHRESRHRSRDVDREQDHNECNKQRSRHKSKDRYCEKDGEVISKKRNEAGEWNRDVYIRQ

Row | Structure (SMILES) | EC50 [µM] | Qpatch Emax
1 | COC(=O)C1=C(CF)NC2=C(C(=O)CC2)[C@H]1c1cccc(F)c1[C@@H](F)CF (single isomer, unassigned) [Example 7, methyl (R)-4-(2-((R or S)-1,2-difluoroethyl)-3-fluorophenyl)-2-(fluoromethyl)-5-oxo-4,5,6,7-tetrahydro-1H-cyclopenta[b]pyridine-3-carboxylate] | 0.03 | 1.8
2 | COC(=O)C1=C(CF)NC2=C(C(=O)OC2)[C@H]1c1cc(F)cc(F)c1C1CC1 (single isomer, unassigned) [Example 13] | 0.02 | 1.6*
3 | COC(=O)C1=C(CF)NC2=C(C(=O)OC2)[C@H]1c1cccc(F)c1C(F)F (single isomer, unassigned) [Example 15] | 0.29 | 1.3
4 | COC(=O)C1=C(CF)NC2=C(C(=O)OC2)[C@H]1c1cccc(F)c1C(F)(F)F (single isomer, unassigned) [Example 17] | 0.12 | 1.2
5 | COC(=O)C1=C(CF)NC2=C(C(=O)OC2)[C@H]1c1cccc(F)c1C1CC1 (single isomer, unassigned) [Example 2] | 0.012 | 2.3
6 | COC(=O)C1=C(CF)NC2=C(C(=O)OC2)[C@H]1c1cc(F)cc(F)c1[C@H]1CC1(F)F (single isomer, unassigned) [Example 3, Methyl (R)-4-(2-((R or S)-2,2-difluorocyclopropyl)-3,5-difluorophenyl)-2-(fluoromethyl)-5-oxo-1,4,5,7-tetrahydrofuro[3,4-b]pyridine-3-carboxylate] | 0.05 | 1.6
7 | COC(=O)C1=C(CF)NC2=C(C(=O)CC2)[C@H]1c1cccc(F)c1C1CC1 (single isomer, unassigned) [Example 28] | 0.06 | 1.9
8 | COC(=O)C1=C(CF)NC2=C(C(=O)OC2)[C@H]1c1cc(F)cc(F)c1[C@H](C)F (single isomer, unassigned) [Example 5, methyl (R)-4-(3,5-difluoro-2-((R or S)-1-fluoroethyl)phenyl)-2-(fluoromethyl)-5-oxo-1,4,5,7-tetrahydrofuro[3,4-b]pyridine-3-carboxylate] | 0.02 | 1.9
9 | COC(=O)C1=C(CF)NC2=C(C(=O)OC2)[C@H]1c1cc(F)cc(F)c1C(F)(F)F (single isomer, unassigned) [Example 10] | 0.04 | 1.8
10 | COC(=O)C1=C(CF)NC2=C(C(=O)OC2)[C@H]1c1cccc(F)c1[C@H]1CC1(F)F (single isomer, unassigned) [Example 1, methyl (R)-4-(2-((R or S)-2,2-difluorocyclopropyl)-3-fluorophenyl)-2-(fluoromethyl)-5-oxo-1,4,5,7-tetrahydrofuro[3,4-b]pyridine-3-carboxylate] | 0.024 | 1.9
11 | COC(=O)C1=C(CF)NC2=C(C(=O)OC2)[C@H]1c1cccc(F)c1[C@H](F)CF (single isomer, unassigned) [Example 6] | 0.017 | 1.4*
12 | COC(=O)C1=C(CF)NC2=C(C(=O)OC2)[C@H]1c1cc(F)cc(F)c1C(F)F (single isomer, unassigned) [Example 18] | 0.21 | 1.8
13 | COC(=O)C1=C(CF)NC2=C(C(=O)OC2)[C@H]1c1cccc(F)c1[C@@H](C)F (single isomer, unassigned) [Example 8] | 0.02 | 2.0
14 | COC(=O)C1=C(CF)NC2=C(C(=O)OC2)[C@H]1c1cc(F)cc(F)c1[C@H]1CC1(F)F (single isomer, unassigned) [Example 4, Methyl (R)-4-(2-((R or S)-2,2-difluorocyclopropyl)-3,5-difluorophenyl)-2-(fluoromethyl)-5-oxo-1,4,5,7-tetrahydrofuro[3,4-b]pyridine-3-carboxylate] | 0.02 | 1.9
15 | COC(=O)C1=C(CF)NC2=C(C(=O)OC2)[C@H]1c1cc(F)cc(F)c1[C@H](F)CF (single isomer, unassigned) [Example 16, methyl (R)-4-(2-((R or S)-1,2-difluoroethyl)-3,5-difluorophenyl)-2-(fluoromethyl)-5-oxo-1,4,5,7-tetrahydrofuro[3,4-b]pyridine-3-carboxylate] | 0.01 | 1.5
16 | COC(=O)C1=C(CF)NC2=C(C(=O)OC2)[C@H]1c1cccc(F)c1CC(F)F (single isomer, unassigned) [Example 11] | 0.07 | 2.0
17 | COC(=O)C1=C(CF)NC2=C(C(=O)OC2)[C@H]1c1ccccc1OC(F)F (single isomer, unassigned) [Example 9] | 0.1 | 1.5
18 | COC(=O)C1=C(CF)NC2=C(C(=O)OC2)[C@H]1c1cc(F)ccc1C(F)(F)F (single isomer, unassigned) [Example 23] | 0.12 | 3.5
